Test results taken from PubChem BioAssay (NCI).
Several values for one entry are separate records, joined by “and”; a condition that tells them apart may be missing. Equal values may be shown once.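 Protocol summary: plate cells (96-well), add compound at 5 concentrations, incubate 48 h, interpolate endpoints linearly. At the GI50, growth is halved. TGI: concentration producing complete growth inhibition.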

system: NCI-H23 lung; experiment: DTP human tumour cell line panel, 48 h

| SMILES | TGI | GI50 |
| --- | --- | --- |
| CC(=O)CC(OC(C)=O)C1=CCC2C(CC1C)OC(=O)C2C (stereo not given) | > 100 µM |  |
| O=C(/C(=C/c1ccc([N+](=O)[O-])cc1)SCc1ccccc1)c1ccc(Cl)cc1 | 14.1 µM | 3.14 µM |
| O=C(O)c1ccc2c(c1C(=O)O)C(=O)OC2(c1ccc(O)cc1)c1ccc(O)cc1 | > 100 µM |  |
| CCN(Cc1ccc(F)cc1)c1cc(Cl)c(CO)c(Cl)c1 | 28.8 µM | 13 µM |
| COc1ccc(/C=N/NC(=O)c2cccc3cc[nH]c23)cc1O | > 100 µM | 6.57 µM |
| N#Cc1c[nH]n2c(N=Nc3ccc(Cl)cc3)c(O)nc12 | 51.2 µM | 18 µM |
| CN(C)c1cc(NN=C(c2ccc(O)cc2)c2ccc(O)cc2)c([N+](=O)[O-])cc1[N+](=O)[O-] | 23.1 µM | 6.46 µM |
| CC1(COc2ccc3c(c2)ncn3-c2ccc3cccc(N4CCC(N)CC4)c3n2)COC1 | 8.59 µM and 5.28 µM | 2.13 µM and 1.94 µM |
| O=S(=O)(c1ccccc1)N1CCN(S(=O)(=O)c2ccccc2)c2ccccc21 | > 100 µM |  |
| COc1cc(-c2ccc3cc(OC)c(OC)c(OC)c3c2)cc(OC)c1OC | > 100 µM | > 100 µM |
| CCOC(=O)C1=C(C)N(c2ccc(F)cc2F)[C@]2(C#N)C(O)=C(Cl)C(Cl)=C(O)[C@]12C#N | > 100 µM | > 100 µM |
| Cc1csc(-c2nnc(Nc3ccc(Oc4ncccc4-c4ccnc(N)n4)cc3)c3ccccc23)c1 | > 100 µM | 2.9 µM |
| COc1cc(C2CC(C)(O)Oc3cc4c(cc32)OCO4)cc(OC)c1OC (stereo not given) | > 100 µM |  |
| CCCCCCCCCCn1cc[n+](C)c1 | 28 µM | 0.648 µM |
| O=C(CCCSc1nc(-c2ccccc2)cc(-c2ccccc2)n1)NO | 6.11 µM | 2 µM |
| O=C(Oc1ccc(Cl)cc1)c1ccccc1Nc1ccnc(C(F)(F)F)c1 | 8.55 µM | 2.82 µM |
| COCCOc1ccc(-c2nc3ccc(-c4nc5ccc(N6CCN(C)CC6)cc5[nH]4)cc3[nH]2)cc1 | 5.09 µM | 1.21 µM |

| SMILES | TGI | GI50 |
| --- | --- | --- |
| Nc1n[nH]c2cccc(C#Cc3cccc(C(=O)Nc4ccc(CN5CCOCC5)c(C(F)(F)F)c4)c3)c12 | 11.3 µM | 2.1 µM |
| COc1ccc(-c2cn[nH]c2-c2cc(OC)c(OC)c(OC)c2)cc1 | 30.2 µM | 0.044 µM |
| CCC(=C/[C@H](C)C/C=C/C(C)=C/[C@@H](C)C(=O)[C@@H](C)[C@H](O)[C@@H](C)CC)/C=C/[C@H]1OC(=O)C=C[C@@H]1C | 3.36 µM | < 0.01 µM |
| Nc1ccccc1SC(CC(=O)c1ccccc1)c1cccc([N+](=O)[O-])c1 (stereo not given) | 32.6 µM | 17.6 µM |
| O=C1CCCCN1c1ccccc1C#C/C=C\C#Cc1ccccc1C(F)(F)F | 4 µM | 1.26 µM |
| CN1CC[C@@H](NC(=O)Nc2ccc(C#N)cc2)C[C@@H]1c1nc2ccccc2[nH]1 | > 60.8 µM | > 42.3 µM |
| COc1ccc2nc(NC(=O)CSc3nnc4n3S(=O)(=O)c3ccccc3N4c3ccccc3)sc2c1 | > 100 µM | > 100 µM |
| Cc1ccc(-n2c3nc(=O)[nH]c(=O)c-3cc3cc([N+](=O)[O-])ccc32)cc1 | 29.6 µM | 13.4 µM |
| O=C1NC(=NC(CO)Cc2ccccc2)S/C1=C\c1ccc2ncccc2c1 (stereo not given) | > 25 µM | 17.7 µM and 2.23 µM |
| COc1cc(/C(C#N)=C/c2nc3c(N4CCOCC4)nc(Cl)nc3n2C)cc(OC)c1OC | > 35.4 µM | < 0.01 µM |
| Cc1nnc(NC(=O)c2nc(S(=O)(=O)Cc3ccc(F)cc3)ncc2Cl)s1 | 32.5 µM | 12.5 µM |
| Nc1c(C(=O)Nc2cccc(C(F)(F)F)c2)sc2nc3c(cc12)CCCCC3 | 10.9 µM | 1.72 µM |
| Cn1ccc2c3c(Oc4ccc(NC(N)=O)cc4)ccnc3ccc21 | > 100 µM | > 100 µM |
| CCCOc1cc2ccccc2cc1C(=O)Nc1nc(N)c2c(ccc3nccc32)[nH]1 | 2.04 µM | 0.209 µM |
| CC1(C)OC1COc1c2occc2cc2ccc(=O)oc12 (stereo not given) | > 100 µM |  |
| CCCCCCCCCCCCC(O)c1ccc(C#CCCCCCCCCCO)o1 (stereo not given) | 48.8 µM | 26.4 µM |
| COc1ccc(CCN=C2NC(=O)/C(=C/c3ccc4ncccc4c3)S2)cc1 | > 25 µM | > 25 µM |

system: SNB-75 CNS; experiment: DTP human tumour cell line panel, 48 h

| SMILES | TGI [µM] | GI50 |
| --- | --- | --- |
| CC(=O)CC(OC(C)=O)C1=CCC2C(CC1C)OC(=O)C2C (stereo not given) | > 100 |  |
| O=C(/C(=C/c1ccc([N+](=O)[O-])cc1)SCc1ccccc1)c1ccc(Cl)cc1 | 35.7 | 16 µM |
| CCCCCCCCCCCCCCCC[N+](C)(C)Cc1ccccc1 | 2.76 | 1.34 µM |
| C[C@]12CCC3c4ccc(O)cc4CCC3C1CC[C@@]2(O)CNC(=O)/C=C/c1ccc(O)c(O)c1 (stereo not given in full) | 29 | 13.2 µM |
| O=C(O)c1ccc2c(c1C(=O)O)C(=O)OC2(c1ccc(O)cc1)c1ccc(O)cc1 | > 100 |  |
| CCN(Cc1ccc(F)cc1)c1cc(Cl)c(CO)c(Cl)c1 | 25.9 | 12.8 µM |
| COc1ccc(/C=N/NC(=O)c2cccc3cc[nH]c23)cc1O | > 100 | 0.24 µM |
| N#Cc1c[nH]n2c(N=Nc3ccc(Cl)cc3)c(O)nc12 | > 100 | 40.7 µM |
| CN(C)c1cc(NN=C(c2ccc(O)cc2)c2ccc(O)cc2)c([N+](=O)[O-])cc1[N+](=O)[O-] | 25 | 10.4 µM |
| CC1(COc2ccc3c(c2)ncn3-c2ccc3cccc(N4CCC(N)CC4)c3n2)COC1 | 5.65 | 0.734 µM |
| O=S(=O)(c1ccccc1)N1CCN(S(=O)(=O)c2ccccc2)c2ccccc21 | > 100 |  |
| CCOC(=O)C1=C(C)N(c2ccc(F)cc2F)[C@]2(C#N)C(O)=C(Cl)C(Cl)=C(O)[C@]12C#N | > 100 | > 100 µM |
| CCCCCCCCCCn1cc[n+](C)c1 | 11.4 | 2.69 µM |
| O=C(CCCSc1nc(-c2ccccc2)cc(-c2ccccc2)n1)NO | 9.55 | 1.68 µM |
| CC1SC(c2ccc(F)cc2)N(NC(=O)C(O)c2ccccc2)C1=O (stereo not given) | > 100 | > 100 µM |
| COCCOc1ccc(-c2nc3ccc(-c4nc5ccc(N6CCN(C)CC6)cc5[nH]4)cc3[nH]2)cc1 | 3.14 | 0.486 µM |
| Nc1n[nH]c2cccc(C#Cc3cccc(C(=O)Nc4ccc(CN5CCOCC5)c(C(F)(F)F)c4)c3)c12 | 12.8 | 3.21 µM |
| COc1ccc(-c2cn[nH]c2-c2cc(OC)c(OC)c(OC)c2)cc1 | 33.6 | 0.022 µM |
| CCC(=C/[C@H](C)C/C=C/C(C)=C/[C@@H](C)C(=O)[C@@H](C)[C@H](O)[C@@H](C)CC)/C=C/[C@H]1OC(=O)C=C[C@@H]1C | 0.655 | < 0.01 µM |
| Nc1ccccc1SC(CC(=O)c1ccccc1)c1cccc([N+](=O)[O-])c1 (stereo not given) | 26.7 | 13.6 µM |
| O=C1CCCCN1c1ccccc1C#C/C=C\C#Cc1ccccc1C(F)(F)F | 11.4 | 1.61 µM |
| CN1CC[C@@H](NC(=O)Nc2ccc(C#N)cc2)C[C@@H]1c1nc2ccccc2[nH]1 | > 100 | > 73.2 µM |
| COc1ccc2nc(NC(=O)CSc3nnc4n3S(=O)(=O)c3ccccc3N4c3ccccc3)sc2c1 | > 100 | 15.9 µM |
| Cc1ccc(-n2c3nc(=O)[nH]c(=O)c-3cc3cc([N+](=O)[O-])ccc32)cc1 | 59.4 | 16.6 µM |
| O=C1NC(=NC(CO)Cc2ccccc2)S/C1=C\c1ccc2ncccc2c1 (stereo not given) | > 25 | 10.8 µM and 1.77 µM |
